Legend:
Assay in all cases: grating-coupled interferometry
Format in all cases: binding
Settings in all cases: 20 mM Tris/HCl pH 7.5, 150 mM NaCl; mass transport limitation model
BtuG3 [1] = molecular target: T1, BtuG3 (Bacteroides thetaiotaomicron, UniProt Q8A5Z1, A261W)
T1 sequence (Q8A5Z1 34-355 A261W): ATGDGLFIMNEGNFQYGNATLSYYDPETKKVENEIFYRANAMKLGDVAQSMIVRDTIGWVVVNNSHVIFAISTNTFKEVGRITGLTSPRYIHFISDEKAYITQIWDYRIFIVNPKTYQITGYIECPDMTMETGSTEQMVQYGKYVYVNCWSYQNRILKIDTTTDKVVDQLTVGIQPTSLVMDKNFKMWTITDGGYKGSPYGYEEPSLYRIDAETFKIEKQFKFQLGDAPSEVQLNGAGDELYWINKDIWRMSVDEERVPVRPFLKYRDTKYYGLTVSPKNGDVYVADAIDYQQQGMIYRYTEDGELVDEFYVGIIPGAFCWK

BtuG1 = molecular target: T2, BtuG1 (Bacteroides thetaiotaomicron, UniProt Q8A7N4)
T2 sequence (Q8A7N4 28-442): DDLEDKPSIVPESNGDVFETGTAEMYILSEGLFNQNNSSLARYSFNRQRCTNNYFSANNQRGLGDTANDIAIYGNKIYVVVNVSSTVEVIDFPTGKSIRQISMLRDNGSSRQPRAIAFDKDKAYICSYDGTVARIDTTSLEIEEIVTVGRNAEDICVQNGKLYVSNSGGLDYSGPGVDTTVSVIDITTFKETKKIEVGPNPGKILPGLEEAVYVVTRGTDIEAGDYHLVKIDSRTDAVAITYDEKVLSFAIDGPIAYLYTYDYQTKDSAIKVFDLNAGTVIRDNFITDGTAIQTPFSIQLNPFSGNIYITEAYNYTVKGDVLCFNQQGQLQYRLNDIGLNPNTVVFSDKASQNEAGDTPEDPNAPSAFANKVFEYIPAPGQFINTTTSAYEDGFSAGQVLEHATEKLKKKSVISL

BtuG3 [2] = molecular target: T3, BtuG3 (Bacteroides thetaiotaomicron, UniProt Q8A5Z1)
T3 sequence (Q8A5Z1 34-355): T1 sequence (Q8A5Z1 34-355 A261W)

BtuG2 = molecular target: T4, BtuG2 (Bacteroides thetaiotaomicron, UniProt Q8A6D0)
T4 sequence (Q8A6D0 47-366): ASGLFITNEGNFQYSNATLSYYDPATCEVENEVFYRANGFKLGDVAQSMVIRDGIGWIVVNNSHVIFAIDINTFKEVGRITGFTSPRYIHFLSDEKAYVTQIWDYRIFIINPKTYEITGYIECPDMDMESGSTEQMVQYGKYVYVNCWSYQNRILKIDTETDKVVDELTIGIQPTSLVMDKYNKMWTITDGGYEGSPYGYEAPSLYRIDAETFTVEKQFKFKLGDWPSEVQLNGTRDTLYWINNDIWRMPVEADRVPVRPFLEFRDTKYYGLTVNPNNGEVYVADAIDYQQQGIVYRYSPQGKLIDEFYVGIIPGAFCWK

SMILES: C/C1=C2/[N-][C@H]([C@H](CC(N)=O)[C@@]2(C)CCC(=O)NC[C@@H](C)OP(=O)([O-])O[C@H]2[C@@H](O)[C@@H](n3cnc4cc(C)c(C)cc43)O[C@@H]2CO)[C@]2(C)N=C(/C(C)=C3N=C(/C=C4N=C1[C@@H](CCC(N)=O)C\4(C)C)[C@@H](CCC(N)=O)[C@]\3(C)CC(N)=O)[C@@H](CCC(N)=O)[C@]2(C)CC(N)=O.[Co+3].[OH-] [OHCbl, hydroxycobalamin]
- Kd (BtuG3 [1]): 1.4 · 10^-10 M
- Kd (BtuG1): 3.0 · 10^-12 M
- Kd (BtuG3 [2]): 2.8 · 10^-11 ± 3.9 · 10^-11 M
- Kd (BtuG2): 2.2 · 10^-12 M

— publication doi:10.1101/2024.02.16.580637v1 (biorxiv, 2024)
